Tested on: d(GC)9 duplex (d(GC)9d(GC)9) (DNA, duplex) GCGCGCGCGCGCGCGCGC
Assay: fluorescence quenching and UV-vis absorption red shift
Details: 100 mM NaCl, 50 mM sodium phosphate; PBS pH 7.4, room temperature; 5 μM proflavine, 2.5 μM DNA; intercalation

- binding: yes
Compound: Nc1ccc2cc3ccc(N)cc3nc2c1

Reference: paper PMC9738913 (2022)
